Measurements reported in BindingDB's records for PubMed 37713805 (University of Michigan).

Biological target: Mitogen-activated protein kinase kinase kinase 12 (Homo sapiens) (UniProt Q12852)
Assay: Binding affinity to DLK (unknown origin) assessed as inhibition constant

Mitogen-activated protein kinase kinase kinase 12 (Homo sapiens), sequence (Q12852 whole entry, looked up): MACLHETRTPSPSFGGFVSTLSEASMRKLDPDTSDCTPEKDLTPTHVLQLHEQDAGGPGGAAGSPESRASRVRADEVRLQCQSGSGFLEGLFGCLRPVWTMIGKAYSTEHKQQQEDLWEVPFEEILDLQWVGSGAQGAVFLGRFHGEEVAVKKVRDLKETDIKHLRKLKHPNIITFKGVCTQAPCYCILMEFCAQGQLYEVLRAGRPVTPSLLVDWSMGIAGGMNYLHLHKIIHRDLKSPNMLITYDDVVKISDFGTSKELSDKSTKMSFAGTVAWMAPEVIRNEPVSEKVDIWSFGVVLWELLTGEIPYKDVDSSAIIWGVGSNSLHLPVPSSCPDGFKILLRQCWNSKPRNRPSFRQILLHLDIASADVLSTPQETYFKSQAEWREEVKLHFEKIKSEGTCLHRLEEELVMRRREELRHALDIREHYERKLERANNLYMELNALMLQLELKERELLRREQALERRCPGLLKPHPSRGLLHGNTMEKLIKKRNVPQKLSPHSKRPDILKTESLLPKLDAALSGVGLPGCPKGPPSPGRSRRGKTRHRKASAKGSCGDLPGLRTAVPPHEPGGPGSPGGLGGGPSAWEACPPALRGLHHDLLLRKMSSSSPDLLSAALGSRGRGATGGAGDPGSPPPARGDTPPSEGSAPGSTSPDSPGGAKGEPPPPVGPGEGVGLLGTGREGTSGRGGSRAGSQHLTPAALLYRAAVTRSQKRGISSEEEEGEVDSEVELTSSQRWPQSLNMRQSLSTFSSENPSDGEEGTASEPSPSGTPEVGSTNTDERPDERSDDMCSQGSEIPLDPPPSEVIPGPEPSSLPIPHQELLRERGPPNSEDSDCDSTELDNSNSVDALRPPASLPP

Ki: 25 nM
SMILES: CC(=O)N1CCC(c2cc(Nc3cc(C#N)ccn3)nc(N3CCC(F)(F)C3)c2)CC1
